Assay [1] addresses T1, human PPARα (Homo sapiens, UniProt Q07869).
T1 construct: PPARγ (aa 174 to 476) and PPARα (aa 167 to 469); made in house; host or cells: E. coli BL21(pLysS)
T1 sequence (Q07869 167-468 limits assumed): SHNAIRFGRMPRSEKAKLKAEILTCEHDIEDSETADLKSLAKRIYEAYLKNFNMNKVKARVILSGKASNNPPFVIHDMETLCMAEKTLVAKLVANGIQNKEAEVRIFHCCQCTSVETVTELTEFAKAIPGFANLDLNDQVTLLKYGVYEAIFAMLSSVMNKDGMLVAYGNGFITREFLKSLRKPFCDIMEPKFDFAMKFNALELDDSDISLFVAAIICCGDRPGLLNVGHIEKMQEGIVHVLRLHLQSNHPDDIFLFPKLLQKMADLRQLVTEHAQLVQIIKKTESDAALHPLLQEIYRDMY
The assay is described as follows: Radioligand binding assay, GST-PPARα-LBD. From the text: (§1) Full-length cDNA clones for human PPARα and mouse PPARγ were obtained by RT-PCR from human adipose and mouse liver cRNA, respectively, cloned into plasmid vectors and verified by DNA sequencing. […] To accomplish this, the portions of the cloned sequences encoding the LBDs were amplified from the full-length clones by PCR and then subcloned into the plasmid vectors. Final clones were verified by DNA sequence analysis.
(§2) Induction, expression, and purification of GST-LBD fusion proteins were performed in E. coli strain BL21(pLysS) cells by standard methods (Ref: Current Protocols in Molecular Biology, Wiley Press, edited by Ausubel et al.).
PPARα receptor binding was assayed in TKE10 (10 mM Tris-HCl, pH 8, 50 mM KCl, 2 mM EDTA, 0.1 mg/ml fatty acid free BSA and 10 mM DTT). For each 96 well 2.4 ug equivalent of GST-PPARα-LBD fusion protein and radioligand, e.g. 40000 dpm 2(S)-(2-benzoyl-phenylamino)-3-{4-[1,1-ditritio-2-(5-methyl-2-phenyl-oxazol-4-yl)-ethoxy]-phenyl}-propionic acid, were incubated in 100 ul volume at RT for 2 hrs. Bound ligand was removed from unbound ligand by solid phase separation using MultiScreen plates (Millipore) filled with 80 ul of SG25 according to the manufacturer's recommendations.
(§3) PPARγ receptor binding was assayed in TKE50 (50 mM Tris-HCl, pH 8, 50 mM KCl, 2 mM EDTA, 0.1 mg/ml fatty acid-free BSA and 10 mM DTT). For each 96 well reaction an 140 ng equivalent of GST-PPARγ-LBD fusion protein was bound to 10 ug SPA beads (PharmaciaAmersham) in a final volume of 50 ul by shaking. The resulting slurry was incubated for 1 h at RT and centrifuged for 2 min at 1300 g. The supernatant containing unbound protein was removed and the semidry pellet containig the recptor-coated beads was resolved in 50 ul of TKE. For radioligand binding e.g. 10000 dpm 2(S)-(2-benzoyl-phenylamino)-3-{4-[1,1-ditritio-2-(5-methyl-2-phenyl-oxazol-4-yl)-ethoxy]-phenyl}-propionic acid in 50 ul were added, the reaction incubated at RT for 1 h and scintillation proximity counting performed. All binding assays were performed in 96 well plates and the amount of bound ligand measured on a Packard TopCount using OptiPlates (Packard). Nonspecific binding was determined in the presence of 10^−4 M unlabelled compound. Dose response curves were done in triplicates within a range of concentration from 10^−10 M to 10^−4 M.

Assay [2] has as its target T2, mouse PPARγ (Mus musculus, UniProt P37238).
T2 sequence (P37238 204-505): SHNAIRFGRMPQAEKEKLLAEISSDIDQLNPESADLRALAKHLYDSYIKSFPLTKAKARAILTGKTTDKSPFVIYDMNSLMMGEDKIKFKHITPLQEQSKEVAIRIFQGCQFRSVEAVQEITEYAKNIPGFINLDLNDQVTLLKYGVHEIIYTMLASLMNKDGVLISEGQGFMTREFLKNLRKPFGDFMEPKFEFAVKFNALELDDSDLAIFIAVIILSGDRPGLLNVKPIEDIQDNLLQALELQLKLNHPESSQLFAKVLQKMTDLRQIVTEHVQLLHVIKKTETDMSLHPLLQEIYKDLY
Nature of the assay: Radioligand binding assay (SPA), GST-PPARγ-LBD. More on the design: PPARγ (aa 174 to 476).
Description: as §1, §2, §3

Assay [3] deals with T1, human PPARα. The assay is described as follows: Luciferase transcriptional reporter gene assay, pFA-PPARα-LBD in BHK21 cells. The assay is classed as cell-based. How it is done: as §1
(§4) Baby hamster kidney cells (BHK21 ATCC CCL10) were grown in DMEM medium containing 10% FBS at 37° C. in a […] atmosphere. Cells were seeded in 6 well plates at a density of 10^5 Cells/well and then transiently batch-transfected with either the pFA-PPARγ-LBD or pFA-PPARα-LBD expression plasmids plus a reporter plasmid and an expression plasmid encoding the secretable form of alkaline phosphatase (SEAP) as a normalization control. […] Six hours following transfection, the cells were harvested by trypsinization and seeded in 96 well plates at a density of 10^4 cells/well. After 24 hours to allow attachment of cells, the medium was removed and replaced with 100 ul of phenol red-free medium containing the test substances or control ligands (final DMSO concentration: 0.1%). Following incubation of the cells for 24 hours with substances, 50 ul of the supernatant was recovered and analyzed for SEAP activity (Roche Molecular Biochemicals). The remainder of the supernatant was discarded, 50 ul PBS was added per well followed by one volume of Luciferase Constant-Light Reagent (Roche Molecular Biochemicals) to lyse the cells and initiate the luciferase reaction. Luminescence for both SEAP and luciferase was measured in a Packard TopCount. Luciferase activity was normalized to the SEAP control and transcriptional activation in the presence of a test substance was expressed as fold-activation over cells incubated in the absence of the substance. EC50 values were calculated using the XLfit program (ID Business Solutions Ltd. UK).
For orientation: Reporter assays use an easily measured gene product as a stand-in for the process of interest.

For assay [4], the target named is T2, mouse PPARγ. The assay is described as follows: Luciferase transcriptional reporter gene assay, pFA-PPARγ-LBD in BHK21 cells. The assay is classed as cell-based. More on the design: PPARγ (aa 174 to 476) and PPARα (aa 167 to 469); expressed in transfected cells; host or cells: BHK21 (ATCC CCL10). How it is done: as §1, §4
Setting [5] is: GST-PPARα-LBD, tritiated radioligand, RT 2 hrs, read-out: PPARα IC50.
The mark [6] stands for this setting: BHK21 cells transfected with pFA-PPARα-LBD, 24 hours incubation, read-out: PPARα EC50.
[7] abbreviates: GST-PPARγ-LBD on SPA beads, tritiated radioligand, RT 1 h, read-out: PPARγ IC50.
[8] abbreviates: BHK21 cells transfected with pFA-PPARγ-LBD, 24 hours incubation, read-out: PPARγ EC50.

Read-outs that look alike come from different tables or passages of the source.

Turning to `CCO[C@@H](Cc1ccc(OCc2nc(-c3ccc(OC(C)C)cc3)oc2C)cc1C)C(=O)O` [Example 2, (S)-2-Ethoxy-3-{4-[2-(4-isopropoxy-phenyl)-5-methyl-oxazol-4-ylmethoxy]-2-methyl-phenyl}-propionic acid], the figures for the IC50 at human PPARα [1] (setting [5]) and at mouse PPARγ [2] were 30 nM and 58 nM, respectively. Further, the results for the EC50 at human PPARα [3] (setting [6]) and on mouse PPARγ [4] were 163 nM and 115 nM, respectively.
The like results for `CCO[C@@H](Cc1ccc(OCc2nc(-c3ccccc3)oc2C)cc1C)C(=O)O` [Example 3, (S)-2-Ethoxy-3-[2-methyl-4-(5-methyl-2-phenyl-oxazol-4-ylmethoxy)-phenyl]-propionic acid] were, in that order, 87 nM, 506 nM, 57 nM and 87 nM.
For `CCO[C@@H](Cc1ccc(OCc2nc(-c3ccc(F)c(C)c3)oc2C)cc1C)C(=O)O` [Example 5, (S)-2-Ethoxy-3-{4-[2-(4-fluoro-3-methyl-phenyl)-5-methyl-oxazol-4-ylmethoxy]-2-methyl-phenyl}-propionic acid] the same measures were 155 nM, 146 nM, 38 nM and 124 nM.
As to `CCO[C@@H](Cc1ccc(OCc2nc(-c3ccc(F)c(C)c3)oc2C)cc1CC)C(=O)O` [Example 9, (S)-2-Ethoxy-3-{2-ethyl-4-[2-(4-fluoro-3-methyl-phenyl)-5-methyl-oxazol-4-ylmethoxy]-phenyl}-propionic acid], the IC50 (as a rule, the concentration that gives 50% inhibition) at human PPARα [1] (setting [5]) stood at 196 nM; at mouse PPARγ [2], 129 nM. Also, the EC50 (as a rule, the midpoint of the concentration-response curve) at human PPARα [3] (setting [6]) stood at 21 nM; on mouse PPARγ [4], 33 nM.
`CCO[C@@H](Cc1ccc(OCc2nc(-c3ccc(OC(C)C)cc3)oc2C)cc1Cl)C(=O)O` [Example 17, (S)-3-{2-Chloro-4-[2-(4-isopropoxy-phenyl)-5-methyl-oxazol-4-ylmethoxy]-phenyl}-2-ethoxy-propionic acid]: the IC50 on human PPARα [1] (setting [5]) is 73 nM; at mouse PPARγ [2], 31 nM. For the same molecule, the EC50 is 186 nM at human PPARα [3] (setting [6]) and 174 nM at mouse PPARγ [4].
In the case of `CO[C@@H](Cc1ccc(OCCc2nc(-c3ccccc3)oc2C)cc1O)C(=O)O` [Example 23, (S)-3-{2-Hydroxy-4-[2-(5-methyl-2-phenyl-oxazol-4-yl)-ethoxy]-phenyl}-2-methoxy-propionic acid], the IC50 at human PPARα [1] was found to be 52 nM; at mouse PPARγ [2] (setting [7]) it was 48 nM. Further, the EC50 at human PPARα [3] came to 306 nM; at mouse PPARγ [4] (setting [8]) it was 138 nM.
`CCO[C@@H](Cc1ccc(OCc2nc(-c3ccc(C(C)C)cc3)oc2C)cc1OC)C(=O)O` [Example 25, (S)-2-Ethoxy-3-{4-[2-(4-isopropyl-phenyl)-5-methyl-oxazol-4-ylmethoxy]-2-methoxy-phenyl}-propionic acid]: the IC50 amounted to 177 nM at human PPARα [1] (setting [5]) and 129 nM on mouse PPARγ [2]. Further, the EC50 was 26 nM at human PPARα [3] (setting [6]) and 75 nM at mouse PPARγ [4].
For `CCO[C@@H](Cc1c(C)cc(OCc2nc(-c3ccccc3)oc2C)cc1C)C(=O)O` [Example 29, (S)-3-[2,6-Dimethyl-4-(5-methyl-2-phenyl-oxazol-4-ylmethoxy)-phenyl]-2-ethoxy-propionic acid] the same measures were 2380 nM, 1730 nM, 213 nM and 678 nM.
For `CCO[C@@H](Cc1ccc(OCCCc2nc(-c3ccccc3)oc2C)cc1C)C(=O)O` [Example 43, (S)-2-Ethoxy-3-{2-methyl-4-[3-(5-methyl-2-phenyl-oxazol-4-yl)-propoxy]-phenyl}-propionic acid], the IC50 was found to be 131 nM at human PPARα [1] and 33 nM at mouse PPARγ [2] (setting [7]). Moreover, the EC50 on human PPARα [3] worked out at 150 nM; on mouse PPARγ [4] (setting [8]), 57 nM.
`CN(CCOc1ccc(CC2SC(=O)NC2=O)cc1)c1ccccn1` (centres unmarked) [Rosiglitazone, reference compound]: the “PPARα IC50” value at human PPARα [1] (GST-PPARα-LBD, tritiated radioligand, RT 2 hrs) was “inactive”. The “PPARα EC50” value on human PPARα [3] (BHK21 cells transfected with pFA-PPARα-LBD, 24 hours incubation) was “inactive”.
